Experimental data reported in publication PMC10023664, “Hiat1 as a new transporter involved in ammonia regulation” (Scientific Reports, 2023).

System: Carcinus maenas Hiat1 (CmHiat1)
Settings: 0.5-20 mM NH4Cl in OR2 bath; room temperature; net flux of whole oocyte, not sham-subtracted (endogenous NH4+ uptake present)

Km: 2300 µM
SMILES: N [NH4^+]
